From US20250352595A1, “PHARMACEUTICAL, FOOD, OR FEED COMPOSITION FOR PREVENTING OR TREATING MUSCLE LOSS CONTAINING RHODODENDRON MUCRONULATUM EXTRACT” (DR. OREGONIN INC., priority 2022, published 2025)

System: 3T3-L1 cells
Assay: Adipocyte differentiation (fat accumulation) measurement by Oil Red-O staining
Format: cell-based, mouse
Conditions: for adipocyte differentiation inhibitory activity depending on the treatment concentration: 3T3-L1 cells, Oil Red O staining; for inhibition at 20 µg/mL: Mus musculus, 20 μg/ml, the highest concentration in the experiment, 3T3-L1 differentiation, Oil Red O, read-out: effect of inhibiting adipogenesis
Description: 3T3-L1 cells, a mouse-derived preadipocyte, were purchased from the Korean Cell Line Bank and used. 3T3-L1 cells were cultured in a 37° C.-wet CO2 incubator (5% CO2/95% air) using a cell culture medium (complete DMEM culture medium) in which 10% bovine calf serum (BCF), 100 units/mL penicillin, and 100 μg/mL streptomycin were added to a DMEM medium (Welgene). When the cells were 80% full of the culture dish, the cell monolayer was washed with phosphate buffer saline (PBS, pH 7.4), and then the cells were detached by adding trypsin-2.65 mM EDTA and subcultured, and the medium was exchanged every 2 days.
3T3-L1 cells were seeded onto 24-well plate at a concentration of 1×10^5 cells/well. After the cells reached the confluence state, the cell culture medium was sequentially exchanged with three kinds of differentiation-inducing cultures (DM), and the cells were cultured to induce differentiation into adipocytes. That is, the cell culture medium was exchanged with a differentiation-inducing culture medium in which DMI (1 μM dexamethasone, 0.5 mM 3-isobutyl-1-methylxanthine (IBMX), […]) was added to a DMEM medium containing 10% FBS to stimulate differentiation for 2 days. After 2 days, the cells were exchanged for a new differentiation-inducing culture medium in which 5 μg/mL insulin was added to DMEM medium containing 10% FBS to stimulate differentiation for another 2 days. After stimulating differentiation for a total of 4 days, cells were maintained in DMEM medium containing 10% FBS for 2 days to induce differentiation into adipocytes.
In order to investigate the effect of the test substance on adipocyte differentiation, the test substance was added to the differentiation-inducing culture medium and treated on the cells.
After treatment with the test substance while inducing differentiation of 3T3-L1 cells, the cells were rinsed with DPBS (Welgene), and then the cells were fixed at room temperature for 1 hour by adding 4% paraformaldehyde (PFA, Biosesang). After the cells were fixed, the cells were treated with oil red O (Sigma-Aldrich) solution and stained at room temperature for 1 to 2 hours. After observing the staining degree of adipocytes visually, the cells were rinsed with distilled water and observed for adipocytes through a microscope.

Compound	adipocyte differentiation inhibitory activity depending on the treatment concentration	inhibition at 20 µg/mL [%]
O=C1c2c(O)cc(O)cc2O[C@H](c2ccc(O)c(O)c2)[C@H]1OC1OC[C@@H](O)[C@@H](O)[C@@H]1O (stereo partly drawn) [Taxifolin-3-O-arabinopyranoside, taxifolin-3-O-α-L-arabinopyranoside]	increases in a concentration-dependent manner	≥ 40
O=C1c2c(O)cc(O)cc2O[C@H](c2ccc(O)c(O)c2)[C@H]1O [Taxifolin-aglycone, taxifolin]	increases in a concentration-dependent manner	≥ 40
